Test results reported in US11466044B2 (WAYNE STATE UNIVERSITY, priority 2017, dated 2022).
Converted amounts (≈) assume the structure as drawn. Counter-ions that a name gives are not always drawn. Like-named read-outs stand apart in the source and are kept apart here.

Assays:
[1] = system: M. smegmatis SZ380; test: MIC by broth microdilution, M. smegmatis; conditions: Mycolicibacterium smegmatis
[2] = system: P aeruginosa; test: MIC by broth microdilution, P aeruginosa isolates; format: cell-based, Pseudomonas aeruginosa; conditions: strain AG220 Pseudomonas aeruginosa ATCC27853; read-out: MIC AG220 P. aerugin
[3] = system: M. abscessus; test: MIC by broth microdilution, M. abscessus; format: cell-based; conditions: Mycobacteroides abscessus
[4] = system: A1555G mutant mitochondrial ribosome (human chimeric); test: in-vitro translation assay, human chimeric ribosomes, A1555G mutant mitochondrial decoding site; format: biochemical; conditions: Table 3 (Example 3)
Description: (§1) The antiribosomal activity of these compounds was investigated with cell-free translation assays using both wild type bacterial ribosomes and hybrid ribosomes carrying eukaryotic decoding A sites enabling the prediction of selectivity.

[5] = system: E coli wild type; test: MIC by broth microdilution, wild type E coli; format: cell-based; conditions: for MIC: Escherichia coli; for antibacterial activity, in words: MRSA and E coli, compared with the parent compound
[6] = system: E coli carrying specific resistance determinants; test: MIC by broth microdilution, E coli carrying specific resistance determinants; format: cell-based; conditions: for MIC: Escherichia coli
[7] = system: Klebsiella pneumonia AG215; test: MIC by broth microdilution, Klebsiella pneumonia; format: cell-based; conditions: Klebsiella pneumoniae; strain AG215 Klebsiella pneumonia; read-out: MIC AG215 K. pneumon
[8] = system: MRSA; test: MIC by broth microdilution, MRSA isolates; format: cell-based; conditions: Staphylococcus aureus, MRSA, Table 1 (Example 3)
[9] = system: wild type bacterial ribosomes; test: in-vitro translation assay, bacterial ribosomes; format: biochemical; conditions: for IC50: bacterial ribosome, Table 4 (Example 3), read-out: IC50 Bac; for selectivity for the bacterial ribosome over mitochondrial (wild type, A1555G mutant) and cytosolic ribosomes, in words: compared with the parent compound
Description: as §1

[10] = system: Enterobacter cloacae AG290; test: MIC by broth microdilution, Enterobacter cloacae; format: cell-based; conditions: strain AG290 Enterobacter cloacae; read-out: MIC AG290 E. cloacae
[11] = system: cytosolic ribosome (human chimeric); format: biochemical; conditions: for Selectivity for Binding to the Bacterial Ribosome over the Cytosolic Ribosome: Table 3 (Example 3); for IC50: cytosolic, Table 4 (Example 3), read-out: IC50 Cyt
Description: as §1

[12] = system: mitochondrial ribosome (human chimeric); format: biochemical; conditions: for Selectivity for Binding to the Bacterial Ribosome over the Mitochondrial Ribosome: Table 3 (Example 3); for IC50: mitochondrial, Table 4 (Example 3), read-out: IC50 Mit
Description: as §1

[13] = system: Acinetobacter baumannii pittii AG225; test: MIC by broth microdilution, Acinetobacter baumannii; format: cell-based; conditions: strain AG225 Acinetobacter baumannii pittii
[14] = system: N. gonorrhoeae; test: Disk diffusion, N. gonorrhoeae; format: cell-based; conditions: Neisseria gonorrhoeae
[15] = Casinelli et al., J Antibiotics 1978, 31, 378 and 382; cited from earlier work
[16] = SZ380, read-out: MIC M. smegmatis SZ380 WT, SZ380 WT, Table 5 (Example 3)
[17] = SZ380, read-out: MIC SZ380 M. smegmatis, strain SZ380 Mycobacterium smegmatis
[18] = ATCC19977, ATCC 19977 WT, Table 5 (Example 3), read-out: MIC M. abscessus ATCC 19977 WT
[19] = read-out: MIC M. abscessus engineered Δeis2
[20] = ATCC, Table 4 (Example 3), read-out: MIC M. abscessus ATCC
[21] = Clin. Isol., Table 4 (Example 3), read-out: MIC M. abscessus Clin. Isol.
[22] = AG006 Wild type, Table 2 (Example 3), read-out: MIC E coli AG006 Wild type
[23] = AG104 Wild type, Table 2 (Example 3), read-out: MIC E coli AG104 Wild type
[24] = ATCC25922, strain AG212 E. coli (ATCC25922), read-out: MIC AG212 E. coli
[25] = WT, Table 4 (Example 3), read-out: MIC E. coli WT
[26] = WT, Table 5 (Example 3), read-out: MIC E. coli WT
[27] = clinical isolate AG001, Table 1 (Example 3), read-out: MIC E coli AG001
[28] = clinical isolate AG003, Table 1 (Example 3), read-out: MIC E coli AG003
[29] = clinical isolate AG055, Table 1 (Example 3), read-out: MIC E coli AG055
[30] = read-out: MIC E coli AG106 AAC(2′)
[31] = read-out: MIC E. coli AAC(2′) AG106
[32] = read-out: MIC E. coli AAC(2′) pH434
[33] = read-out: MIC E. coli AG106 AAC(2′)-Ia
[34] = read-out: MIC E. coli pGB2armA armA
[35] = read-out: MIC E. coli pH434 AAC(2′)-Ib
[36] = clinical isolate AG038, read-out: MIC MRSA AG038
[37] = clinical isolate AG039, read-out: MIC MRSA AG039
[38] = clinical isolate AG042, read-out: MIC MRSA AG042
[39] = clinical isolate AG044, read-out: MIC MRSA AG044

SMILES	MIC [1, 16] [µg/mL]	MIC [1, 17] [µg/mL]	MIC [2] [µg/mL]	MIC [3, 18] [µg/mL]	MIC [3, 19] [µg/mL]	MIC [3, 20] [µg/mL]	MIC [3, 21] [µg/mL]	Selectivity for Binding to the Bacterial Ribosome over the Mutant Mitochondrial Ribosome [4]	MIC [5, 24] [µg/mL]	MIC [5, 25] [µg/mL]	MIC [5, 26] [µg/mL]	MIC [5, 27] [µg/mL]	MIC [5, 28] [µg/mL]	MIC [5, 29] [µg/mL]	MIC [6, 31] [µg/mL]	MIC [6, 32] [µg/mL]	MIC [6, 34] [µg/mL]	MIC [6, 35] [µg/mL]	MIC [7] [µg/mL]	MIC [8, 36] [µg/mL]	other results
NCC1OC(OC2C(N)CC(N)C(O)C2OC2OC(CO)C(OC3OC(CN)C(O)C(O)C3N)C2O)CC(O)C1O (stereo not drawn) [Compound 173, 2′-Deamino-neomycin acetate salt]	0.25	0.25	> 64	4	0.125	4	8	31	1	1	1	2	1 to 2	2	1	8	1	8	0.5	1	MIC [5, 22]: 1 µg/mL; MIC [5, 23]: 0.5 to 1 µg/mL; antibacterial activity, in words [5]: little to no loss of antibacterial activity; effect of the AAC(2′) resistance determinant, in words [6]: overcomes the effect of AAC(2′); MIC [6, 30]: 1 µg/mL; MIC [6, 33]: 1 µg/mL; MIC [8, 37]: 32 µg/mL; MIC [8, 38]: 32 µg/mL; IC50 [9]: 0.03 µM; selectivity for the bacterial ribosome over mitochondrial (wild type, A1555G mutant) and cytosolic ribosomes, in words [9]: increased selectivity for the bacterial ribosome; MIC [10]: 1 µg/mL; Selectivity for Binding to the Bacterial Ribosome over the Cytosolic Ribosome [11]: 3188; IC50 [11]: 85 µM; Selectivity for Binding to the Bacterial Ribosome over the Mitochondrial Ribosome [12]: 831; IC50 [12]: 22 µM; MIC [13]: 1 µg/mL; zone of inhibition at 25 nmol/disc [14]: 10 mm
CCCNC1C(OC2C(N)CC(N)C(O)C2OC2OC(CO)C(OC3OC(CN)C(O)C(O)C3N)C2O)OC(CO)C(O)C1O (stereo not drawn) [Compound 128, 2′-N-Propyl-paromomycin acetate salt]	2	2	> 64	32	1	32	64	763	4	2	2	16	16	16	2	4	4 to 8	4	2	8 to 16	MIC [8, 37]: > 128 µg/mL; MIC [8, 38]: > 128 µg/mL; MIC [8, 39]: 4 µg/mL; IC50 [9]: 0.05 µM; selectivity for the bacterial ribosome over mitochondrial (wild type, A1555G mutant) and cytosolic ribosomes, in words [9]: increased selectivity for the bacterial ribosome; MIC [10]: 2 µg/mL; Selectivity for Binding to the Bacterial Ribosome over the Cytosolic Ribosome [11]: 425; IC50 [11]: 21 µM; Selectivity for Binding to the Bacterial Ribosome over the Mitochondrial Ribosome [12]: 3066; IC50 [12]: 153 µM; MIC [13]: 4 µg/mL; zone of inhibition at 25 nmol/disc [14]: 11 mm
CNC1C(OC2C(N)CC(N)C(O)C2OC2OC(CO)C(OC3OC(CN)C(O)C(O)C3N)C2O)OC(CN)C(O)C1O (stereo not drawn) [Compound 171, 2′-N-Methyl-neomycin acetate salt]	< 0.063	< 0.0625	> 64	0.25	0.063	0.25	0.5	117	1	0.5	0.5	1	1	1	0.5	4	1	4	0.5	0.25 to 0.5	MIC [5, 22]: 0.25 µg/mL; MIC [5, 23]: 0.5 µg/mL; MIC [6, 30]: 0.5 µg/mL; MIC [6, 33]: 0.5 µg/mL; MIC [8, 37]: > 32 µg/mL; MIC [8, 38]: > 32 µg/mL; IC50 [9]: 0.01 µM; selectivity for the bacterial ribosome over mitochondrial (wild type, A1555G mutant) and cytosolic ribosomes, in words [9]: increased selectivity for the bacterial ribosome; MIC [10]: 0.5 to 1 µg/mL; Selectivity for Binding to the Bacterial Ribosome over the Cytosolic Ribosome [11]: 4000; IC50 [11]: 37 µM; Selectivity for Binding to the Bacterial Ribosome over the Mitochondrial Ribosome [12]: 483; IC50 [12]: 4.7 µM; MIC [13]: 1 µg/mL; zone of inhibition at 25 nmol/disc [14]: 9 mm
NCC1OC(OC2C(CO)OC(OC3C(O)C(N)CC(N)C3OC3OC(CN)C(O)C(O)C3O)C2O)C(N)C(O)C1O (stereo not drawn) [Compound 119]	0.5 (≈ 0.812 µM)	0.5 (≈ 0.812 µM)	> 64	2 (≈ 3.25 µM)	0.125 (≈ 0.203 µM)	2 (≈ 3.25 µM)	4 (≈ 6.5 µM)	94	1 (≈ 1.62 µM)	0.5 to 1 (≈ 0.812 to 1.62 µM)	0.5 to 1 (≈ 0.812 to 1.62 µM)	2 to 4 (≈ 3.25 to 6.5 µM)	2 to 4 (≈ 3.25 to 6.5 µM)	2 to 4 (≈ 3.25 to 6.5 µM)	1 (≈ 1.62 µM)	4 (≈ 6.5 µM)	1 (≈ 1.62 µM)	4 (≈ 6.5 µM)	0.5 (≈ 0.812 µM)	2 (≈ 3.25 µM)	MIC [5, 22]: 0.5 µg/mL (≈ 0.812 µM); MIC [5, 23]: 1 µg/mL (≈ 1.62 µM); antibacterial activity, in words [5]: little to no loss of antibacterial activity; antibiotic potency compared with the parent compounds, in words [15]: comparable antibiotic potency to the parent compounds; effect of the AAC(2′) resistance determinant, in words [6]: overcomes the effect of AAC(2′); MIC [6, 30]: 1 µg/mL (≈ 1.62 µM); MIC [6, 33]: 1 µg/mL (≈ 1.62 µM); MIC [8, 37]: > 128 µg/mL; MIC [8, 38]: > 128 µg/mL; MIC [8, 39]: 2 µg/mL (≈ 3.25 µM); IC50 [9]: 0.03 µM; selectivity for the bacterial ribosome over mitochondrial (wild type, A1555G mutant) and cytosolic ribosomes, in words [9]: increased selectivity for the bacterial ribosome; MIC [10]: 1 µg/mL (≈ 1.62 µM); Selectivity for Binding to the Bacterial Ribosome over the Cytosolic Ribosome [11]: 3667; IC50 [11]: 108 µM; Selectivity for Binding to the Bacterial Ribosome over the Mitochondrial Ribosome [12]: 1222; IC50 [12]: 36 µM; MIC [13]: 1 µg/mL (≈ 1.62 µM)
CCNC1C(OC2C(N)CC(N)C(O)C2OC2OC(CO)C(OC3OC(CN)C(O)C(O)C3N)C2O)OC(CN)C(O)C1O (stereo not drawn) [Compound 172, 2′-N-Ethyl-neomycin acetate salt]	< 0.063	< 0.0625	> 32	0.25	0.063	0.25	0.5	111	1	0.5 to 1	0.5 to 1	1 to 2	1	1	0.5	1	1	1	0.5	0.5	MIC [5, 22]: 0.5 µg/mL; MIC [5, 23]: 0.5 µg/mL; MIC [6, 30]: 0.5 µg/mL; MIC [6, 33]: 0.5 µg/mL; MIC [8, 37]: > 32 µg/mL; MIC [8, 38]: > 32 µg/mL; IC50 [9]: 0.01 µM; selectivity for the bacterial ribosome over mitochondrial (wild type, A1555G mutant) and cytosolic ribosomes, in words [9]: increased selectivity for the bacterial ribosome; MIC [10]: 0.5 to 1 µg/mL; Selectivity for Binding to the Bacterial Ribosome over the Cytosolic Ribosome [11]: 3111; IC50 [11]: 43 µM; Selectivity for Binding to the Bacterial Ribosome over the Mitochondrial Ribosome [12]: 850; IC50 [12]: 11 µM; MIC [13]: 1 µg/mL; zone of inhibition at 25 nmol/disc [14]: 9 mm
